Measured values: patent US9845285B2, “Crystalline solid and amorphous forms of (−)-halofenate and methods related thereto” (CymaBay Therapeutics, Inc., priority 2005, dated 2017)
Like-named read-outs stand apart in the source and are kept apart here.

Columns and labels:
[1] = target: cytochrome P450 2C9 (Homo sapiens, UniProt P11712); conditions: cited from earlier work
[2] = cited from earlier work
[3] = physchem; conditions: for solubility: thermodynamic from solid
Method: Solubility studies were done on Form A in water and a variety of organic solvents. […] Solubility was also determined in these solvents at approximately 50° C.

[4] = Automated moisture sorption/desorption; format: physicochemical; conditions: for solid form after moisture sorption/desorption: XRPD after desorption
Method: Moisture sorption/desorption data were collected on a VTI-SGA-100 Vapor Sorption Analyzer. Sorption and desorption data were collected over a range of 5% to 95% relative humidity (RH) at 10% RH intervals under a nitrogen purge. Samples were not dried prior to analysis. Equilibrium criteria used for analysis were less than 0.0100% weight change in 5 minutes with a maximum equilibration time of 3 hours if the weight criterion was not met. Data were not corrected for the initial moisture content of the samples. Sodium chloride and polyvinylpyrolidone were used as calibration standards. A sample was taken after desorption was complete and analyzed by powder X-ray diffraction for potential form change.

[5] = Slurry interconversion studies in cyclohexane; format: physicochemical; conditions: for form resulting from slurry: cyclohexane, ambient temperature, 50° C. and 5° C.
Method: Samples of mixed forms by XRPD and pure forms were used for interconversion studies (see FIG. 37).
A saturated solution was prepared by vortexing and sonicating ca. 4 mg (−)-halofenate Form A in approximately 5-6 mL cyclohexane. This solution was filtered into a sample containing a mixture of ca. 40 mg Form A/Form D. The mixture was slurred on a rotating wheel at ambient temperature for approximately 6 days. The solids were recovered by vacuum filtration and vacuum dried at ambient temperature. The dry solids were analyzed by polarized light microscopy and XRPD.
The experiment was repeated using a shaker block at ca 50° C. using 2 mL of cyclohexane and slurried for ca. 3 days. and the supernatant was removed through decantation. Both the ambient and 50° C. experiments were repeated using pure forms A and E (ca. 20 mg of each form). The ambient experiment was also repeated with A, B, D, and E (ca. 10 mg of each form, slurred approximately 7 days) on a rotating wheel and on a magnetic stir plate in the refrigerator (ca 5° C.). When conversion was not deemed complete by XRPD solids were re-slurried in cyclohexane.
Interconversion studies were carried out in cyclohexane at ambient temperature 50° C. and 5° C. (see FIG. 37). The solvent was chosen because of the high solubility of the various forms in common organic solvents. Forms A, B, D and E were used as starting materials.

[6] = Thermal analysis (DSC/TGA), decomposition; format: physicochemical
Method: Differential scanning calorimetry (DSC) was performed using a TA Instruments 2920 differential scanning calorimeter. The sample was placed into an aluminum DSC pan and the weight accurately recorded. The pan was covered with a lid and then crimped. The sample cell was equilibrated at 25° C. and heated under a nitrogen purge at a rate of 10° C./min, up to a final temperature of 350° C. Indium metal was used as the calibration standard. Reported temperatures are at the transition maxima.
Thermographic analyses (TGA) was performed using a TA Instruments 2920 thermographic analyzer. The sample was placed into an aluminum sample pan and inserted into a TGA furnace. The sample was first equilibrated at 25° C., then heated under a nitrogen at a rate of 10° C./min, up to a final temperature of 350° C. Nickel and ALUMEL™ were used as calibration standards.

[7] = Solid form stability on drying, slurrying and storage; format: physicochemical; conditions: for conversion to other solid forms: upon drying, slurrying or over time

Chain of cytochrome P450 2C9 (P11712 whole entry): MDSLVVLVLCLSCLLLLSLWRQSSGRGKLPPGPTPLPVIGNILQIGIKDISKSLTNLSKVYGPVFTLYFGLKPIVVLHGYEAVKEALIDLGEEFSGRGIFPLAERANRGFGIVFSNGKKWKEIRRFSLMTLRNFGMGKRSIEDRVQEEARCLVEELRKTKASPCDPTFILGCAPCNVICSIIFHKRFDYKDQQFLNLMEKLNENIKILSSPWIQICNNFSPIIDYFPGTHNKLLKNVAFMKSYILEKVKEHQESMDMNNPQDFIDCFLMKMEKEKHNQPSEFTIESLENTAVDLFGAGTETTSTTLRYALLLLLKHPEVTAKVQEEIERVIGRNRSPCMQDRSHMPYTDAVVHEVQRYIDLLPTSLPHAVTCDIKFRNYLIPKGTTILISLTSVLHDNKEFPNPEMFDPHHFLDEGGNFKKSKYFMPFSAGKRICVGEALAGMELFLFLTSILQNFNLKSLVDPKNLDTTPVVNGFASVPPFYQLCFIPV

Compound | hygroscopicity [4] | solid form after moisture sorption/desorption [4] | form resulting from slurry [5] | decomposition onset [6] | conversion to other solid forms [7] | other results
O=C(O)C(Oc1cccc(C(F)(F)F)c1)c1ccc(Cl)cc1 (racemic) [halofenic acid, 4-Chlorophenyl-(3-trifluoromethylphenoxy)-acetic acid] | – | – | – | – | – | inhibition of cytochrome P450 2C9 [1]: inhibited
CC(=O)NCCOC(=O)C(Oc1cccc(C(F)(F)F)c1)c1ccc(Cl)cc1 (racemic) [racemic halofenate, 2-acetamidoethyl 4-chlorophenyl-(3-trifluoromethylphenoxy)-acetate] | – | – | – | – | – | side effects ([2]; Friedberg et al., Clin. Res. 1986): gastrointestinal bleeding from stomach and peptic ulcers; drug-drug interactions ([2]; with agents such as warfarin sulfate (COUMADIN), Vesell and Passantanti 1972): some indications of drug-drug interactions
O=C(O)C(Oc1cccc(C(F)(F)F)c1)c1ccc(Cl)cc1 (single isomer, unassigned; (-)) [(−)-enantiomer of halofenic acid] | – | – | – | – | – | ability to inhibit cytochrome P450 2C9 compared to the (+)-enantiomer (less active) ([1]; versus (+)-enantiomer of halofenic acid, U.S. Pat. No. 6,262,118): about twenty-fold
CC(=O)NCCOC(=O)C(Oc1cccc(C(F)(F)F)c1)c1ccc(Cl)cc1 (single isomer, unassigned; (-)) [(−)-halofenate, (−)-2-acetamidoethyl 4-chlorophenyl-(3-trifluoromethylphenoxy)-acetate] | – | – | – | – | – | solubility ([3]; organic solvent or mixture): > 300 mg/mL; solubility ([3]; water): < 1 mg/mL
CC(=O)NCCOC(=O)C(Oc1cccc(C(F)(F)F)c1)c1ccc(Cl)cc1 (stereo not shown) [Form A] | non-hygroscopic | essentially unchanged | resulted in Form A | approximately 200 °C | – | relative solubility in crystallization solvents ([3]; some crystallization solvents): lower solubility; weight gain ([4]; at 65% relative humidity (RH)): no weight gain; weight gain ([4]; at 65-95% RH): 1.6%; loss of weight gain in desorption study ([4]; desorption at 5% RH): All of the weight gain was lost; relative stability of crystal form ([5]; from slurry interconversion in cyclohexane): most stable crystal form; relative thermodynamic stability of crystalline solid form [7]: most thermodynamically stable; relative thermodynamic stability of crystalline solid form ([7]; listed as form A): most stable crystalline solid form; storage stability ([7]; long periods (months)): could be stored for long periods (months) without decomposition
CC(=O)NCCOC(=O)C(Oc1cccc(C(F)(F)F)c1)c1ccc(Cl)cc1 (stereo not shown) [Form B] | – | – | resulted in Form A | – | could be converted to other solid forms upon drying or slurrying | –
CC(=O)NCCOC(=O)C(Oc1cccc(C(F)(F)F)c1)c1ccc(Cl)cc1 (stereo not shown) [Form C] | – | – | – | – | could be converted to other forms upon drying or slurrying | conversion to other solid forms ([7]; listed as form C): over time conversion to crystal form E (below) occurred
CC(=O)NCCOC(=O)C(Oc1cccc(C(F)(F)F)c1)c1ccc(Cl)cc1 (stereo not shown) [Form D] | non-hygroscopicity | remained Form D | resulted in Form A | approximately 225 °C | could be converted to Form A upon slurring | weight gain ([4]; at 95% RH): less than 0.1%
CC(=O)NCCOC(=O)C(Oc1cccc(C(F)(F)F)c1)c1ccc(Cl)cc1 (stereo not shown) [Form E] | non-hygroscopicity | remained Form E | resulted in Form A | approximately 225 °C | could be converted to Form A upon slurring | weight gain ([4]; at 95% RH): less than 0.2%
